Experimental data taken from US20040191907A1, “Cultured cells of Ficus stipulata Thunb. (=Ficus thunbergii) and a method for culturing tissues of the Ficus stipulata Thunb. by using said cultured cells” (HIROSHIMA UNIVERSITY, priority 2001, published 2004).

Key:
[1] = tested on: cut pieces of the leaf, shoot and root tissues of the Ficus stipulata Thunb.; assay: Experiment 1: polyblast formation from cut pieces cultured on medium containing thidiazuron and/or benzyladenine; format: cell-based; conditions: for Number of cut piece* (cut pieces with polyblast formation × 100/cut piece) / Number of shoots/cut piece: one month after the culturing; for induction of the Ficus stipulata Thunb. (polyblast formation / redifferentiation): culture medium containing at least one of TDZ and/or BA
Protocol: A culture medium in which the MS culture medium or the WP culture medium was used as a fundamental culture medium and 1% sucrose and 0.3% Gellan Gum were added as the carbonaceuous source and a gelling agent, respectively, was used.
Cut pieces, 0.5˜1 mm long, were prepared from leaf, shoot and root tissues of the Ficus stipulata Thunb. asepatically cultured. The cut pieces of the leaf, shoot and root tissues of the Ficus stipulata Thunb. thus prepared were implanted on a culture medium containing thidiazuron and/or benzyladenine as plant hormones, thereby culturing the Ficus stipulata Thunb. One month after the culturing, it was observed that polyblasts were formed from the cut pieces. The polyblasts were cut out, their cut edge were coated with iondoleacetic acid, and the polyblasts were implanted into the above culture medium or a culture containing pearlite and vermiculite, and allowed to take roots.

[2] = tested on: cut pieces from stem apexes, nodes and stem portions of Ficus stipulata Thunb.; assay: Experiment 2: redifferentiation condition, polyblasts and buds formed at stem apex cut pieces; format: cell-based; conditions: for Number of cut pieces* in which polyflasts were formed at a stem apex: of 4 cut pieces; for Number of cut pieces* in which polyflasts were formed at a stem apex / Number of buds formed: six weeks; for Number of buds formed: stem apex; for redifferential state: used as the plant hormone, bright condition, WP culture medium
Protocol: A redifferentiation condition most suitable for the introduction of a gene into the Ficus stipulata Thunb. was examined, and the gene was tried introduced thereinto.
First, the redifferentiation condition was examined. As the Ficus stipulata Thunb., one sterilized and aseptically subcultured was used. The Ficus stipulata Thunb. aseptically grown (4 to 6 weeks after implanting the cutting) used, and cut pieces were prepared from stem apexes, nodes and stem portions, and implanted in the culture medium. Six weeks later, the number and the shape of buds were observed. In culturing the Ficus stipulata Thunb., 1/3 of a block of Florialite (a mixture of vermiculite and cellulose fibers) was added into a test tube (30×200 mm), to which 15 ml of the MS culture medium or the WP culture medium was added. The test tube was closed with a polypropylene cap, which was placed in an autoclave.
A braird appearing in the Ficus stipulata Thunb. having been aseptically subcultured in an Agripot (a plastic container) was cut by about 2 to 3 cm, its cut section was immersed into a 1 g/l solution (1 g/l) of 4-(3-indolyl)butyric acid, and the cut piece was implanted in the test piece thus prepared, and subjected to 4 to 8 week culturing.
The culturing conditions were: atmospheric temperature 25° C., illumination intensity 30˜40 μEm^−2s^−1, a bright condition of 30˜40μEm^−2s^−1 for 15 hours and a dark condition of 1˜2μEm^−2s^−1 for 9 hours.
The MS culture medium or the WP culture medium was used as a fundamental culture medium. Sucrose 2% was added into each of the culture media, thereby adjusting the pH values of the MS culture medium and the WP culture medium to 5.6 and 5.2, respectively. Further, Gellan Gum 3% was added to the culture medium, and it was autoclaved at 120° C. for 15 minutes, thereby preparing a solid culture medium. As plant hormones, […] (NAA), benzylaminopurine (BA), thidiazuron(TDZ), abscisic acid (ABA) and silver nitrate (AgNO3) were used.

Which results are given for O=C(Nc1ccccc1)Nc1cnns1 [TDZ, thidiazuron]?
Number of cut piece* (cut pieces with polyblast formation × 100/cut piece) ([1]; BA 0 nM, TDZ 1 nM): 100; Number of shoots/cut piece ([1]; BA 0 nM, TDZ 1 nM): 1.5 ± 1.0; Number of cut piece* (cut pieces with polyblast formation × 100/cut piece) ([1]; BA 0 nM, TDZ 1 × 10^2 nM): 100; Number of shoots/cut piece ([1]; BA 0 nM, TDZ 1 × 10^2 nM): 2.5 ± 0.6; Number of cut piece* (cut pieces with polyblast formation × 100/cut piece) ([1]; BA 0 nM, TDZ 1 × 10^4 nM): 100; Number of shoots/cut piece ([1]; BA 0 nM, TDZ 1 × 10^4 nM): 1.5 ± 1.0; induction of the Ficus stipulata Thunb. (polyblast formation / redifferentiation) [1]: could be induced at a high probability; Number of cut pieces* in which polyflasts were formed at a stem apex ([2]; BA 0 nM, TDZ 1 nM): 4; Number of buds formed ([2]; BA 0 nM, TDZ 1 nM): 1.5 ± 1.0; Number of cut pieces* in which polyflasts were formed at a stem apex ([2]; BA 0 nM, TDZ 10^2 nM): 4; Number of buds formed ([2]; BA 0 nM, TDZ 10^2 nM): 2.5 ± 0.6; Number of cut pieces* in which polyflasts were formed at a stem apex ([2]; BA 0 nM, TDZ 10^4 nM): 4; Number of buds formed ([2]; BA 0 nM, TDZ 10^4 nM): 1.5 ± 1.0; redifferential state [2]: good redifferential state

c1ccc(CNc2ncnc3nc[nH]c23)cc1 [BA, benzyladenine] was tested. Which “Number of cut piece* (cut pieces with polyblast formation × 100/cut piece)” value ([1]; BA 9 nM, TDZ 0 nM) did it give?
Its value is 50.

And the “Number of shoots/cut piece” value ([1]; BA 9 nM, TDZ 0 nM)?
The value was 1.8 ± 2.4.

And the “Number of cut piece* (cut pieces with polyblast formation × 100/cut piece)” value ([1]; BA 22 nM, TDZ 0 nM)?
Its value is 100.

What about the “Number of shoots/cut piece” value ([1]; BA 22 nM, TDZ 0 nM) of the same compound?
Its value is 3.5 ± 0.6.

And the “Number of cut piece* (cut pieces with polyblast formation × 100/cut piece)” value ([1]; BA 36 nM, TDZ 0 nM)?
The value was 100.

And the “Number of shoots/cut piece” value ([1]; BA 36 nM, TDZ 0 nM)?
Its value is 2.5 ± 1.0.

What about the “Number of cut piece* (cut pieces with polyblast formation × 100/cut piece)” value ([1]; BA 44 nM, TDZ 0 nM) of the same compound?
The value was 100.

What about the “Number of shoots/cut piece” value ([1]; BA 44 nM, TDZ 0 nM) of the same compound?
The value was 3.8 ± 0.5.

What about the “induction of the Ficus stipulata Thunb. (polyblast formation / redifferentiation)” value [1] of the same compound?
The value was “could be induced at a high probability”.

What about the “Number of cut pieces* in which polyflasts were formed at a stem apex” value (shortened to “Number of cut pieces*”) ([2]; BA 8.9 nM, TDZ 0 nM) of the same compound?
The value was 2.

And the “Number of buds formed” value ([2]; BA 8.9 nM, TDZ 0 nM)?
Its value is 1.8 ± 2.4.

And the “Number of cut pieces*” value ([2]; BA 22.2 nM, TDZ 0 nM)?
The value was 4.

And the “Number of buds formed” value ([2]; BA 22.2 nM, TDZ 0 nM)?
Its value is 3.5 ± 0.6.

And the “Number of cut pieces*” value ([2]; BA 35.5 nM, TDZ 0 nM)?
Its value is 4.

And the “Number of buds formed” value ([2]; BA 35.5 nM, TDZ 0 nM)?
The value was 2.5 ± 1.0.

What about the “Number of cut pieces*” value ([2]; BA 44.4 nM, TDZ 0 nM) of the same compound?
Its value is 4.

What about the “Number of buds formed” value ([2]; BA 44.4 nM, TDZ 0 nM) of the same compound?
The value was 3.8 ± 0.5.

What about the redifferential state [2] of the same compound?
The redifferential state was “good redifferential state”.
